Consider 34 compounds from US20230065814A1, “CONJUGATES OF-ELECTRON-PAIR-DONATING HETEROAROMATIC NITROGEN-COMPRISING COMPOUNDS” (Ascendis Pharma A/S, priority 2019, published 2023).

The first series in a line: In vitro release kinetics (Example 69): cleavage rate of the reversible bond at pH 7.4 and 37° C. in aqueous buffer. Format: physicochemical. The settings on record: aqueous sodium phosphate buffer. As for the experimental part:
The cleavage rate of the reversible bond from conjugates 18, 20, 23 was monitored at pH 7.4 and 37° C. in aqueous buffer (pH 7.4 48 mM sodium phosphate, 20% acetonitrile). Disappearance of the conjugate was determined by LCMS (UV detection) and fitted with curve fitting software to obtain the half-life of the release.
Take `COC(=O)c1ccc2ncn(C(=O)N(C)CC(=O)NC(C)CCCCC(=O)O)c2c1` (stereo not shown) [Compound 20]: the half-life was 43.2 h.

As to `CC(CCCCC(=O)O)NC(=O)CN(C)C(=O)n1ccnc1` (stereo not shown) [Compound 18], the half-life is 40.8 h.

With `CN(C)CCN(C)C(=O)n1ccc2cc(C(=O)O)ccc21` [Compound 23], the half-life is 744 h.

A further series can be described thus: In vitro release kinetics (Example 59): cleavage rate of the reversible bond at 37° C. in aqueous buffer, conditions A-F. Format: physicochemical. The settings on record: aqueous sodium phosphate buffer, pH 7.4. As for the experimental part:
The cleavage rate of the reversible bond from conjugates 9a-d, 13a-e and 17b-q was monitored at 37° C. in aqueous buffer (condition A: pH 7.4 60 mM sodium phosphate, 1% acetonitrile, B: pH 7.4 48 mM sodium phosphate, 20% acetonitrile, 0.1% Pluronic F68, C: pH 7.4 48 mM sodium phosphate with 16 mM L-Methionine 2.4 mM EDTA, 0.1% pluronic and 20% acetonitrile, D: pH 7.0 48 mM sodium phosphate with 16 mM L-Methionine 2.4 mM EDTA, 0.1% pluronic and 20% acetonitrile, E: pH 7.4 60 mM sodium phosphate, F: pH 7.4 48 mM sodium phosphate, 20% acetonitrile). For soluble examples disappearance of the conjugate was determined by LCMS (UV detection) and fitted with curve fitting software to obtain the half-life of the release. For insoluble examples (hydrogels) the increase in released axitinib in the supernatant was determined by LCMS (UV detection) and used as input for the curve fitting software to obtain the half-life of the release. Release rates at pH 7.4 for conjugates only incubated at pH 7.0 are estimated to increase by a factor of 2 to 3.
The compounds marked with “*” are not in accordance with the present invention as they were for efficiency reasons not linked to a moiety Z. Nevertheless, they show the release half-lives of such moieties -L^1-.
`C[C@@H](CCC(=O)NCCCCCC(=O)O)NC(=O)CN(C)C(=O)n1nc(C(=O)O)c2ccccc21` [Compound 13c]: the half-life is 166 h.

With `CNC(=O)c1ccccc1Sc1ccc2c(/C=C/c3ccccn3)nn(C(=O)N(C)CC(=O)N[C@H](C(=O)O)C(C)C)c2c1` [Compound 9c], the half-life is 1130 h.

The compound `CCN(CC(=O)NCCOCCOCC(=O)O)C(=O)n1nc(C(=O)O)c2ccccc21` [Compound 13d] showed a half-life of 76.8 h.

Compound `CCN(CC(=O)NCCC(=O)O)C(=O)n1nc(/C=C/c2ccccn2)c2ccc(Sc3ccccc3C(=O)NC)cc21` [Compound 9a] showed a half-life of 96 h.

Compound `C[C@@H](CC(=O)N(C)CCC(=O)O)NC(=O)CN(C)C(=O)n1nc(C(=O)O)c2ccccc21` [Compound 13a] gave a half-life of 101 h.

`C[C@@H](CC(=O)O)NC(=O)C[C@H](C)NC(=O)CN(C)C(=O)n1nc(C(=O)O)c2ccccc21` [Compound 13b] had a half-life of 86.4 h.

`O=C(O)CCCCCNC(=O)CONC(=O)CNC(=O)n1nc(C(=O)O)c2ccccc21` [Compound 13e] gave a half-life of 108 h.

For `CNC(=O)c1ccccc1Sc1ccc2c(/C=C/c3ccccn3)nn(C(=O)N(C)CC(=O)N[C@@H](C)CC(=O)O)c2c1` [Compound 9b], the half-life is 276 h.

In turn, `CCN(CC(=O)NCCCCCC(=O)O)C(=O)n1nc(/C=C/c2ccccn2)c2ccc(Sc3ccccc3C(=O)NC)cc21` [Compound 9d] gave a half-life of 110 h.

The next series in a line: In vitro release kinetics (Example 34): cleavage rate of the reversible bond at pH 7.4 and 37° C. in aqueous buffer. Format: physicochemical. Conditions: aqueous sodium phosphate buffer, read-out: t1/2 (pH 7.4) (converted). As for the experimental part:
For soluble examples disappearance of the conjugate was determined by LCMS (UV detection) and fitted with curve fitting software to obtain the preliminary half-life of the release. For insoluble examples (hydrogels) the increase in released heteroaromatic moiety containing molecule in the supernatant was determined by LCMS (UV detection) and used as input for the curve fitting software to obtain the preliminary half-life of the release.
Compounds marked with “**” were synthesized for comparison.
Consider `CCC(C)NC(=O)CN(C)C(=O)n1nc(C(=O)O)c2ccccc21` (stereo not shown) [Compound 7b], for which the half-life is 17 days.

As for `CCN(CC(=O)NCCCCCC(=O)O)C(=O)n1nc(C(=O)O)c2ccccc21` [Compound 7f], the half-life is 9.6 days.

For `CCCCOC(=O)n1nc(C(=O)O)c2ccccc21` [Compound 6a], the half-life was 21 days.

Take `CC(CCC(=O)NCCC(=O)O)OC(=O)n1nc(C(=O)O)c2ccccc21` (stereo not shown) [Compound 6d]: the half-life is 36 days.

For the compound `CCCNC(=O)CCN(C)C(=O)n1nc(C(=O)O)c2ccccc21` [Compound 7d], the half-life was above 180 days.

For `O=C(O)CCNC(=O)[C@H]1CC[C@H](OC(=O)n2nc(C(=O)O)c3ccccc32)CC1` [Compound 6f], the half-life was 39 days.

For `CC(=O)N[C@H](C(=O)O)[C@H](C)OC(=O)n1nc(C(=O)O)c2ccccc21` [Compound 6e], the half-life is 1 days.

On to `C[C@H](NC(=O)CN(C)C(=O)n1nc(C(=O)O)c2ccccc21)C(=O)NCCCCCC(=O)O` [Compound 8b], for which the half-life was 0.342 days.

Turning to `CC(C)(C)OC(=O)n1nc(C(=O)O)c2ccccc21` [Compound 6c], the half-life is 0.0833 days.

Take `CCCC(C)OC(=O)n1nc(C(=O)O)c2ccccc21` (stereo not shown) [Compound 6b]: the half-life is 99 days.

Consider `CCCNC(=O)n1nc(C(=O)O)c2ccccc21` [Compound 7i], for which the half-life is above 180 days.

As for `C[C@@H](C(=O)NCCCCCC(=O)O)N(C)C(=O)n1nc(C(=O)O)c2ccccc21` [Compound 8c], the half-life is 13 days.

Consider `CNCCNC(=O)[C@H](CC(=O)n1ncc2ccccc21)N(C)C(=O)CCCCCS(=O)(=O)O` [1 h], for which the half-life was below 0.000694 days.

`CCN(CC(=O)NCCC(=O)O)C(=O)n1nc(C(=O)O)c2ccccc21` [Compound 7g]: the half-life is 7.7 days.

Take `CN(C)CCN(C)C(=O)n1nc(C(=O)O)c2ccccc21` [Compound 7j]: the half-life was 0.121 days.

Take `CCCNC(=O)CN(C)C(=O)n1nc(C(=O)O)c2ccccc21` [Compound 7a]: the half-life is 3.5 days.

Take `C[C@@H](CC(=O)NCCCCCC(=O)O)NC(=O)CN(C)C(=O)n1nc(C(=O)O)c2ccccc21` [Compound 8a]: the half-life was 2.4 days.

As for `CCCNC(=O)CN(CC)C(=O)n1nc(C(=O)O)c2ccccc21` [Compound 7h], the half-life was 8.1 days.

`O=C(O)CCCCCNC(=O)[C@@H]1CCCN1C(=O)n1nc(C(=O)O)c2ccccc21` [Compound 8d]: the half-life was 12 days.

Take `CC(C)[C@H](NC(=O)CN(C)C(=O)n1nc(C(=O)O)c2ccccc21)C(=O)O` [Compound 7c]: the half-life was above 180 days.

With `CCN(CC(=O)NC(C)CCCCC(=O)O)C(=O)n1nc(C(=O)O)c2ccccc21` (stereo not shown) [Compound 7e], the half-life is 52 days.

For `CN(C)CCCN(C)C(=O)n1nc(C(=O)O)c2ccccc21` [Compound 7k], the half-life was 164 days.
